Common to all, as to type: in vivo
What all share (details): 1000 g ai/ha, 0 to 100 scale, 0 no effect, 100 complete control

Assay [1] deals with foxtail, giant (giant foxtail, Setaria faberii). The assay is described as follows: Test A preemergence, foxtail, giant. From the text:
(§1) Seeds of plant species selected from barnyardgrass (Echinochloa crus-galli), crabgrass, large (large crabgrass, Digitaria sanguinalis), kochia (Kochia scoparia), ragweed (common ragweed, Ambrosia elatior), morningglory (Ipomoea spp.), velvetleaf (Abutilon theophrasti), ryegrass, Italian (Italian ryegrass, Lolium multiflorum), foxtail, giant (giant foxtail, Setaria faberii), wheat (Triticum aestivum), corn (Zea mays), and pigweed (Amaranthus retroflexus), were planted into a blend of loam soil and sand and treated preemergence with a directed soil spray using test chemicals formulated in a non-phytotoxic solvent mixture which included a surfactant. At the same time, plants selected from these crop and weed species and also blackgrass (Alopecurus myosuroides), and galium (catchweed bedstraw, Galium aparine), were planted in pots containing the same blend of loam soil and sand and treated with postemergence applications of test chemicals formulated in the same manner. Plants ranged in height from 2 to 10 cm and were in the one- to two-leaf stage for the postemergence treatment. Treated plants and untreated controls were maintained in a greenhouse for approximately 10 d, after which time all treated plants were compared to untreated controls and visually evaluated for injury. Plant response ratings, summarized in Table A, are based on a 0 to 100 scale where 0 is no effect and 100 is complete control. A dash (-) response means no test result.

For assay [2], the system named is ryegrass, Italian (Italian ryegrass, Lolium multiflorum). The assay is described as follows: Test A preemergence, ryegrass, Italian.
From the text: as §1

The test system is the same in assay [3]. The assay is described as follows: Test A postemergence, ryegrass, Italian.
From the text: as §1

Assay [4] relates to ragweed (common ragweed, Ambrosia elatior). In words: Test A postemergence, ragweed.
From the text: as §1

The test system is the same in assay [5]. In words: Test A preemergence, ragweed.
From the text: as §1

Assay [6] relates to wheat (Triticum aestivum). In words: Test A postemergence, wheat.
From the text: as §1

For assay [7], the system named is galium (catchweed bedstraw, Galium aparine). In words: Test A postemergence, galium.
From the text: as §1

Assay [8] deals with foxtail, giant (giant foxtail, Setaria faberii). The assay is described as follows: Test A postemergence, foxtail, giant.
From the text: as §1

A further assay has as its system corn (Zea mays). The assay is described as follows: Test A postemergence, corn.
From the text: as §1

Assay [9] relates to pigweed (Amaranthus retroflexus). In words: Test A postemergence, pigweed.
From the text: as §1

The subject of assay [10] is barnyardgrass (Echinochloa crus-galli). The assay is described as follows: Test A preemergence, barnyardgrass.
From the text: as §1

Assay [11] concerns blackgrass (Alopecurus myosuroides). The assay is described as follows: Test A postemergence, blackgrass.
From the text: as §1

Assay [12] deals with barnyardgrass (Echinochloa crus-galli). In words: Test A postemergence, barnyardgrass.
From the text: as §1

For assay [13], the system named is kochia (Kochia scoparia). The assay is described as follows: Test A preemergence, kochia.
From the text: as §1

In assay [14] the test system is pigweed (Amaranthus retroflexus). The assay is described as follows: Test A preemergence, pigweed.
From the text: as §1

Assay [15] has as its system kochia (Kochia scoparia). In words: Test A postemergence, kochia.
From the text: as §1

Data on three molecules can be found in US11178873B2, “Cyclic N-carboxamide compounds useful as herbicides” (FMC CORPORATION, priority 2015, dated 2021).

Each structure is given as a SMILES string.

Take `Cc1ccc(C2CCC(=O)N2C(=O)Nc2ccccc2F)cc1` (stereo not drawn) [Compound 19]: the “Plant response rating, Foxtail, Giant” value came to 40 in [1] and 0 in [8]. In addition, the “Plant response rating, Ryegrass, Italian” value in [2] and in assay [3] was 0 each time. For the same molecule, the “Plant response rating, Ragweed” value in [4] and in [5] was 0 each time. The “Plant response rating, Wheat” value in [6] was 0. For the same molecule, the “Plant response rating, Galium” value in assay [7] amounted to 0. Also, in the assay with corn (Zea mays), the “Plant response rating, Corn” value was 0. In addition, the “Plant response rating, Pigweed” value in assay [9] was 0; in assay [14], 70. Besides, the results for the “Plant response rating, Barnyardgrass” value in assay [10] and in assay [12] were 40 and 0, respectively. The “Plant response rating, Blackgrass” value in assay [11] was found to be 0. The “Plant response rating, Kochia” value was 20 in the assay with kochia (Kochia scoparia) [13] and 0 in the assay with kochia (Kochia scoparia) [15].
`Cc1ccc(C2CCC(=O)N2C(=O)Nc2ccccc2C(F)(F)F)cc1` (stereo not drawn) [Compound 20]: the entries for the “Plant response rating, Foxtail, Giant” value in assay [1] and in [8] were 20 and 0, respectively. In addition, the “Plant response rating, Ryegrass, Italian” value in assay [2] and in assay [3] was 0 each time. The “Plant response rating, Ragweed” value in [4] and in assay [5] was 0 each time. In assay [6], the “Plant response rating, Wheat” value is listed as 0. For the same molecule, the “Plant response rating, Galium” value in [7] is given as 0. In addition, in the assay with corn (Zea mays), the “Plant response rating, Corn” value worked out at 0. For the same molecule, the “Plant response rating, Pigweed” value in assay [9] and in assay [14] was 0 in each case. For the same molecule, the “Plant response rating, Barnyardgrass” value in assay [10] and in assay [12] was 0 each time. In assay [11], the “Plant response rating, Blackgrass” value came to 0. In addition, the “Plant response rating, Kochia” value with kochia (Kochia scoparia) [13] and in the assay with kochia (Kochia scoparia) [15] was 0 each time.
Consider `Cc1ccc(C2CCC(=O)N2C(=O)Nc2ccc(F)c(F)c2F)cc1` (stereo not drawn) [Compound 21], for which the “Plant response rating, Foxtail, Giant” value in [1] was found to be 70; in assay [8], 0. Moreover, the “Plant response rating, Ryegrass, Italian” value in assay [2] and in assay [3] was 0 each time. Also, the “Plant response rating, Ragweed” value in assay [4] and in assay [5] was 0 throughout. Also, the “Plant response rating, Wheat” value in [6] came to 0. In addition, in [7], the “Plant response rating, Galium” value was determined as 0. For the same molecule, in the assay with corn (Zea mays), the “Plant response rating, Corn” value amounted to 0. The “Plant response rating, Pigweed” value in assay [9] and in assay [14] was 0 each time. Further, the “Plant response rating, Barnyardgrass” value in [10] was 20; in assay [12], 0. The “Plant response rating, Blackgrass” value in [11] amounted to 0. The “Plant response rating, Kochia” value in the assay on kochia (Kochia scoparia) [13] and in the assay with kochia (Kochia scoparia) [15] was 0 each time.
